Target: T1, human Cot catalytic domain (30-397 amino acids) (Homo sapiens, UniProt P41279)
T1 construct: Purified recombinant human Cot catalytic domain (30-397 amino acids) was purchased from Cama Biosciences; purchased Cama Biosciences (so in the source)
Assay: High Throughput Cot Biochemical Assay (KinEASE TR-FRET)
Conditions: Cot KinEASE TR-FRET, 400 μM ATP; read-out: IC50 HTRF
Protocol: Example 61: High Throughput Cot Biochemical Assay
In this assay, Cot-catalyzes the phosphorylation of a XL665-labeled peptide substrate. Europium conjugated phospho-tyrosine specific antibody binds the resulting phosphorylated peptide. […] Purified recombinant human Cot catalytic domain (30-397 amino acids) was purchased from Cama Biosciences. […] The standard 5 μL reaction mixture contained 400 μM ATP, 1 μM STK3 peptide, 5 nM of Cot in reaction buffer (10 mM MOPS, pH 7.0, 0.02% NaN3, 0.5 mg/mL BSA, 10 mM MgOAc, 1 mM DTT, 0.025% NP-40, 1.5% glycerol) and 0.1% DMSO.

T1 sequence (P41279 30-397): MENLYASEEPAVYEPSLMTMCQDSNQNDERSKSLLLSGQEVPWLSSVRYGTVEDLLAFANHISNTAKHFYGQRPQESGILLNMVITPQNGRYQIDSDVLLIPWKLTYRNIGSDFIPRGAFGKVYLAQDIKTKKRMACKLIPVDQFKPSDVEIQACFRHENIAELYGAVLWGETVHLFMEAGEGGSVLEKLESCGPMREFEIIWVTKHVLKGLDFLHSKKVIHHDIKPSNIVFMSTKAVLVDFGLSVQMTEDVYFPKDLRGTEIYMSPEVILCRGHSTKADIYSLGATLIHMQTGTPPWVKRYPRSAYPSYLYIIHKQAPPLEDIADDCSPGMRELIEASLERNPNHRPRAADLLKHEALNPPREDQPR

| SMILES | IC50 |
| --- | --- |
| N#Cc1cnc2c(Cl)cc(N[C@@H](c3ccc(F)cc3)c3cn(C4CCN(C5CC(F)(F)C5)CC4)nn3)cc2c1Nc1ccc(F)c(Cl)c1 [Example 822, (S)-8-chloro-4-((3-chloro-4-fluorophenyl)amino)-6-(((1-(1-(3,3-difluorocyclobutyl)piperidin-4-yl)-1H-1,2,3-triazol-4-yl)(4-fluorophenyl)methyl)amino) quinoline-3-carbonitrile] | 90 nM |
| N#Cc1cnc2c(Cl)cc(N[C@@H](c3ccc(F)cc3)c3cn(C4CCN(CC(F)F)CC4)nn3)cc2c1Nc1ccc(F)c(Cl)c1 [Example 823, (S)-8-chloro-4-((3-chloro-4-fluorophenyl)amino)-6-(((1-(1-(2,2-difluoroethyl)piperidin-4-yl)-1H-1,2,3-triazol-4-yl)(4-fluorophenyl)methyl)amino) quinoline-3-carbonitrile] | 97 nM |
| CN1CCC(n2cc([C@@H](Nc3cc(Cl)c4ncc(C#N)c(Nc5ccc(F)c(Cl)c5)c4c3)c3ccc(F)cc3)nn2)CC1 [Example 826, (S)-8-chloro-4-((3-chloro-4-fluorophenyl)amino)-6-(((4-fluorophenyl)(1-(1-methylpiperidin-4-yl)-1H-1,2,3-triazol-4-yl)methyl)amino)quinoline-3-carbonitrile] | 6 nM |
| CCN1CCC(n2cc(C(Nc3ccc4ncc(C#N)c(Nc5ccc(F)c(Cl)c5)c4c3)c3ccc(F)cc3)nn2)CC1 (stereo not drawn) [Example 827, 4-((3-chloro-4-fluorophenyl)amino)-6-(((1-(1-ethylpiperidin-4-yl)-1H-1,2,3-triazol-4-yl)(4-fluorophenyl)methyl)amino) quinoline-3-carbonitrile] | 34 nM |
| N#Cc1cnc2c(Cl)cc(N[C@@H](c3ccc(F)cc3)c3cn(C4CN5CCC4CC5)nn3)cc2c1Nc1ccc(F)c(Cl)c1 (stereo partly drawn) [Example 829, 8-chloro-4-((3-chloro-4-fluorophenyl)amino)-6-(((1S)-(4-fluorophenyl)(1-(quinuclidin-3-yl)-1H-1,2,3-triazol-4-yl)methyl)amino)quinoline-3-carbonitrile] | 6 nM |
| CC(C)(C)OC(=O)N1CCC(n2cc([C@@H](Nc3cc(Cl)c4ncc(C#N)c(Nc5ccc(F)c(Cl)c5)c4c3)c3ccc(F)cc3)nn2)CC1 [Example 830, tert-butyl (S)-4-(4-(((8-chloro-4-((3-chloro-4-fluorophenyl)amino)-3-cyanoquinolin-6-yl)amino)(4-fluorophenyl)methyl)-1H-1,2,3-triazol-1-yl)piperidine-1-carboxylate] | 363 nM |
| CCN1CCC(n2cc(C(Nc3ccc4ncc(C#N)c(Nc5ccc(F)c(Cl)c5)c4c3)c3ccc(F)cc3)nn2)CC1 (stereo not drawn) [Example 832, 4-((3-chloro-4-fluorophenyl)amino)-6-(((1-(1-ethylpiperidin-4-yl)-1H-1,2,3-triazol-4-yl)(4-fluorophenyl)methyl)amino) quinoline-3-carbonitrile] | 9 nM |
| CCN1CCC(n2cc(C(Nc3cc(Br)c4ncc(C#N)c(Nc5ccc(F)c(Cl)c5)c4c3)c3ccc(F)cc3)nn2)CC1 (stereo not drawn) [Example 833, 8-bromo-4-((3-chloro-4-fluorophenyl)amino)-6-(((1-(1-ethylpiperidin-4-yl)-1H-1,2,3-triazol-4-yl)(4-fluorophenyl)methyl)amino) quinoline-3-carbonitrile] | 7 nM |
| N#Cc1cnc2ccc(NC(c3ccc(F)cc3)c3cn(C4CCN(C(=O)OCc5ccccc5)CC4)nn3)cc2c1Nc1ccc(F)c(Cl)c1 (stereo not drawn) [Example 834, benzyl 4-(4-(((4-((3-chloro-4-fluorophenyl)amino)-3-cyanoquinolin-6-yl)amino)(4-fluorophenyl)methyl)-1H-1,2,3-triazol-1-yl)piperidine-1-carboxylate] | 756 nM |
| CCN1CCC(n2cc(C(Nc3cc(Cl)c4ncc(C#N)c(Nc5ccc(F)c(Cl)c5)c4c3)c3ccc(F)cc3)nn2)CC1(C)C (stereo not drawn) [Example 838, 8-chloro-4-((3-chloro-4-fluorophenyl)amino)-6-(((1-(1-ethyl-2,2-dimethylpiperidin-4-yl)-1H-1,2,3-triazol-4-yl)(4-fluorophenyl)methyl)amino) quinoline-3-carbonitrile] | 32 nM |
| CC1(C)CC(n2cc(C(Nc3cc(Cl)c4ncc(C#N)c(Nc5ccc(F)c(Cl)c5)c4c3)c3ccc(F)cc3)nn2)CCN1 (stereo not drawn) [Example 839, 8-chloro-4-((3-chloro-4-fluorophenyl)amino)-6-(((1-(2,2-dimethylpiperidin-4-yl)-1H-1,2,3-triazol-4-yl)(4-fluorophenyl)methyl)amino) quinoline-3-carbonitrile] | 24 nM |
| CC1(C)CNCCC1n1cc(C(Nc2cc(Cl)c3ncc(C#N)c(Nc4ccc(F)c(Cl)c4)c3c2)c2ccc(F)cc2)nn1 (stereo not drawn) [Example 840, 8-chloro-4-((3-chloro-4-fluorophenyl)amino)-6-(((1-(3,3-dimethylpiperidin-4-yl)-1H-1,2,3-triazol-4-yl)(4-fluorophenyl)methyl)amino) quinoline-3-carbonitrile] | 84 nM |
| N#Cc1cnc2c(Cl)cc(NC(c3ccc(F)cc3)c3cn(C4CCOCC4)nn3)cc2c1Nc1ccc(F)c(Cl)c1 (stereo not drawn) [Example 843, 8-chloro-4-((3-chloro-4-fluorophenyl)amino)-6-(((4-fluorophenyl)(1-(tetrahydro-2H-pyran-4-yl)-1H-1,2,3-triazol-4-yl)methyl)amino)quinoline-3-carbonitrile] | 58 nM |
| CC(=O)N1CCC(n2cc(C(Nc3cc(Cl)c4ncc(C#N)c(Nc5ccc(F)c(Cl)c5)c4c3)c3ccc(F)cc3)nn2)CC1 (stereo not drawn) [Example 844, 6-(((1-(1-acetylpiperidin-4-yl)-1H-1,2,3-triazol-4-yl)(4-fluorophenyl)methyl)amino)-8-chloro-4-((3-chloro-4-fluorophenyl)amino)quinoline-3-carbonitrile] | 48 nM |
| CS(=O)(=O)N1CCC(n2cc(C(Nc3cc(Cl)c4ncc(C#N)c(Nc5ccc(F)c(Cl)c5)c4c3)c3ccc(F)cc3)nn2)CC1 (stereo not drawn) [Example 845, 8-chloro-4-((3-chloro-4-fluorophenyl)amino)-6-(((4-fluorophenyl)(1-(1-(methylsulfonyl)piperidin-4-yl)-1H-1,2,3-triazol-4-yl)methyl)amino)quinoline-3-carbonitrile] | 99 nM |
| Cn1ccc(C(Nc2cc(Cl)c3ncc(C#N)c(Nc4ccc(F)c(Cl)c4)c3c2)c2ccc(F)cc2)n1 (stereo not drawn) [Example 846, 8-chloro-4-((3-chloro-4-fluorophenyl)amino)-6-(((4-fluorophenyl)(1-methy-1-1H-pyrazol-3-yl)methyl)amino)quinoline-3-carbonitrile] | > 10000 nM |
| N#Cc1cnc2c(Cl)cc(N[C@H](c3ccc(F)cc3)c3cn(C4CCNCC4)nn3)cc2c1Nc1ccc(F)c(Cl)c1 [Example 850, (R)-8-chloro-4-((3-chloro-4-fluorophenyl)amino)-6-(((4-fluorophenyl)(1-(piperidin-4-yl)-1H-1,2,3-triazol-4-yl)methyl)amino)quinoline-3-carbonitrile] | 926 nM |
| N#Cc1cnc2c(Cl)cc(N[C@@H](c3ccc(F)cc3)c3cn(C4CCNCC4)nn3)cc2c1Nc1ccc(F)c(Cl)c1 [Example 851, (S)-8-chloro-4-((3-chloro-4-fluorophenyl)amino)-6-(((4-fluorophenyl)(1-(piperidin-4-yl)-1H-1,2,3-triazol-4-yl)methyl)amino)quinoline-3-carbonitrile] | 7 nM |
| Cn1cc(C(Nc2cc(Cl)c3ncc(C#N)c(Nc4ccc(F)c(Cl)c4)c3c2)c2cccc(CN3CCCC3)c2)nn1 (stereo not drawn) [Example 852, 8-chloro-4-((3-chloro-4-fluorophenyl)amino)-6-(((1-methyl-1H-1,2,3-triazol-4-yl)(3-(pyrrolidin-1-ylmethyl)phenyl)methyl)amino)quinoline-3-carbonitrile] | 22 nM |
| N#Cc1cnc2c(Cl)cc(NC(c3ccc(F)cc3)c3cn(C4CCN(C(=O)OCc5ccccc5)CC4)nn3)cc2c1Nc1ccc(F)c(Cl)c1 (stereo not drawn) [Example 855, benzyl 4-(4-(((8-chloro-4-((3-chloro-4-fluorophenyl)amino)-3-cyanoquinolin-6-yl)amino)(4-fluorophenyl)methyl)-1H-1,2,3-triazol-1-yl)piperidine-1-carboxylate] | 2400 nM |
| CCN1CCC(n2cc([C@H](Nc3cc(Cl)c4ncc(C#N)c(Nc5ccc(F)c(Cl)c5)c4c3)c3ccc(Cl)cc3)nn2)CC1 [Example 856, (R)-8-chloro-4-((3-chloro-4-fluorophenyl)amino)-6-(((4-chlorophenyl)(1-(1-ethylpiperidin-4-yl)-1H-1,2,3-triazol-4-yl)methyl)amino)quinoline-3-carbonitrile] | 860 nM |
| N#Cc1cnc2c(Cl)cc(N[C@H](c3ccc(Cl)cc3)c3cn(C4CCNCC4)nn3)cc2c1Nc1ccc(F)c(Cl)c1 [Example 857, (R)-8-chloro-4-((3-chloro-4-fluorophenyl)amino)-6-(((4-chlorophenyl)(1-(piperidin-4-yl)-1H-1,2,3-triazol-4-yl)methyl)amino)quinoline-3-carbonitrile] | 1340 nM |
| N#Cc1cnc2c(Cl)cc(NC(c3ccc(F)cc3)c3cccnc3)cc2c1Nc1ccc(F)c(Cl)c1 (stereo not drawn) [Example 862, 8-chloro-4-((3-chloro-4-fluorophenyl)amino)-6-(((4-fluorophenyl)(pyridin-3-yl)methyl)amino)quinoline-3-carbonitrile] | 3960 nM |
| N#Cc1cnc2c(Cl)cc(NC(c3ccc(F)cc3)c3cn([C@@H]4CCNC4)nn3)cc2c1Nc1ccc(F)c(Cl)c1 (stereo partly drawn) [Example 864, 8-chloro-4-((3-chloro-4-fluorophenyl)amino)-6-(((4-fluorophenyl)(1-((R)-pyrrolidin-3-yl)-1H-1,2,3-triazol-4-yl)methyl)amino)quinoline-3-carbonitrile] | 22 nM |
